Source: patent publication US20160030415A1, “TREATMENT AND PROPHYLAXIS OF KIDNEY DISEASES” (priority 2013, published 2016)

Test system: STZ induced diabetic nephropathy in rats
Experiment: Study 4: HCQ and its combination with Losartan, Telmisartan, Azilsartan and Ramipril, with Glimepiride control
Assay type: in vivo, Wistar rats
Settings: for HDL / TC / TG / GSH / TBARS / Total protein kidney / Creatinine / Total protein / Urea: after 8th week; for Glucose Day1 / Glucose Day14 / Glucose Day28 / Glucose Day42 / Glucose Day56: blood; for GSH / TBARS / Total protein kidney: kidney homogenate; for Creatinine / Total protein / Urea: serum
Method: The methods described in Terri et al, Diabetes Volume, 1997, 46:1612-1618, and Takashi et al, Jpn J. Pharmacol, 1997, 75, 59-64, were followed for inducing Diabetes in rats by injecting Streptozotocin. The Efficacy of the drugs was tested in two different models, one involving comparison with diabetic control (i.e. Diabetic Rats not treated with any medication) and the other involving comparison with the anti-diabetic control group (i.e. Diabetic rats administered Glimepiride) in two separate studies.
Wistar rats of either sex weighing 150-200 g were divided randomly into 28 groups consisting of 6 animals each. Diabetes was induced in rats by single administration of streptozotocin (55 mg/kg/i.p) dissolved in 0.1 M-citrate buffer, pH 4.5. Group 1 (normal control) consisted of normal rats that neither received streptozotocin nor any test drug; Group 2 served as Diabetic control; Group 3 was diabetic rats treated with Hydroxychloroquine (35 mg/kg); Group 4 was diabetic rats treated with Hydroxychloroquine (45 mg/kg) and Group 5 was diabetic rats treated with Hydroxychloroquine (70 mg/kg); Group 6 was diabetic rats treated with Losartan (5.5 mg/kg); Group 7 was diabetic rats treated with Losartan (11 mg/kg); Group 8 was diabetic rats treated with combination of Losartan (5.5 mg/kg) and Hydroxychloroquine (45 mg/kg); Group 9 was diabetic rats treated with combination of Losartan (11 mg/kg) and Hydroxychloroquine (35 mg/kg); Group 10 was diabetic rats treated with Ramipril (0.6 mg/kg); Group 11 was diabetic rats treated with Ramipril (0.3 mg/kg); Group 12 was diabetic rats treated with combination of Ramipril (0.6 mg/kg) and Hydroxychloroquine (35 mg/kg); Group 13 was diabetic rats treated with combination of Ramipril (0.3 mg/kg) and Hydroxychloroquine (45 mg/kg); Group 14 was diabetic rats treated with combination of Ramipril (0.6 mg/kg) and Hydroxychloroquine (45 mg/kg); Group 15 was diabetic rats treated with combination of Ramipril (0.3 mg/kg) and Hydroxychloroquine (35 mg/kg); Group 16 was diabetic rats treated with Telmisartan (9.5 mg/kg); Group 17 was diabetic rats treated with Telmisartan (4.5 mg/kg); Group 18 was diabetic rats treated with combination of Telmisartan (9.5 mg/kg) and Hydroxychloroquine (35 mg/kg); Group 19 was diabetic rats treated with combination of Telmisartan (4.5 mg/kg) and Hydroxychloroquine (45 mg/kg); Group 20 was diabetic rats treated with combination of Telmisartan (9.5 mg/kg) and Hydroxychloroquine (45 mg/kg); Group 21 was diabetic rats treated with combination of Telmisartan (4.5 mg/kg) and Hydroxychloroquine (35 mg/kg); Group 22 was diabetic rats treated with Azilsartan (4.5 mg/kg); Group 23 was diabetic rats treated with Azilsartan (2.5 mg/kg); Group 24 was diabetic rats treated with combination of Azilsartan (4.5 mg/kg) and Hydroxychloroquine (35 mg/kg); Group 25 was diabetic rats treated with combination of Azilsartan (2.5 mg/kg) and Hydroxychloroquine (45 mg/kg); Group 26 was diabetic rats treated with combination of Azilsartan (4.5 mg/kg) and Hydroxychloroquine (45 mg/kg); Group 27 was diabetic rats treated with combination of Azilsartan (2.5 mg/kg) and Hydroxychloroquine (35 mg/kg); Group 28 served as Anti-Diabetic control wherein diabetic rats were treated with antidiabetic drug Glimepiride (GLM) (1 mg/kg).
The study drugs were dissolved/suspended in vehicle and administered orally once a day for eight weeks. The diabetes mellitus induced nephropathy was assessed by estimating the level of serum urea, serum creatinine and total serum protein content after completion of eighth week of study. TBARS, GSH and Total Protein were measured as markers of renal oxidative stress in Kidney Homogenate after completion of eighth week of study. Blood glucose levels were also assessed at weekly interval.

[1] = dose mg/kg: HCQ 35, LT 5.5, RM 0.3, TL 4.5, AZ 2.5, alone or combined with HCQ 35
[2] = dose mg/kg: HCQ 45, LT 11, RM 0.6, TL 9.5, AZ 4.5, alone or combined with HCQ 45

Compound `CCCc1nc2c(C)cc(-c3nc4ccccc4n3C)cc2n1Cc1ccc(-c2ccccc2C(=O)O)cc1` [Telmisartan] has an HDL [1] of 26 ± 1.67 mg/dL, a TC [1] of 138.67 ± 3.93 mg/dL and a TG [1] of 100.33 ± 5.57 mg/dL. For the same compound, the HDL [2] was 26.83 ± 1.47 mg/dL, the TC [2] was 141.5 ± 2.88 mg/dL and the TG [2] was 97.67 ± 6.09 mg/dL. The “Glucose Day1” value [1] was 281.83 ± 12.46 mg/dL, the “Glucose Day1” value [2] was 275.33 ± 15.45 mg/dL and the “Glucose Day14” value [1] was 221.83 ± 12.37 mg/dL. For the same compound, the “Glucose Day14” value [2] was 221.5 ± 16.02 mg/dL, the “Glucose Day28” value [1] was 181.83 ± 5.04 mg/dL and the “Glucose Day28” value [2] was 184.33 ± 8.31 mg/dL. The “Glucose Day42” value [1] was 162 ± 9.21 mg/dL, the “Glucose Day42” value [2] was 159.83 ± 7.03 mg/dL and the “Glucose Day56” value [1] was 139 ± 7.85 mg/dL. For the same compound, the “Glucose Day56” value [2] was 141 ± 7.07 mg/dL, the GSH [1] was 0.86 ± 0.06 nM/mg and the TBARS [1] was 0.65 ± 0.15 nM/mg. The Total protein kidney [1] was 879.17 ± 29.41 µg/mL, the GSH [2] was 0.96 ± 0.11 nM/mg and the TBARS [2] was 0.54 ± 0.14 nM/mg. For the same compound, the Total protein kidney [2] was 864.5 ± 25.65 µg/mL, the Creatinine [1] was 3.68 ± 0.31 mg/dL and the Total protein [1] was 4.93 ± 0.23 g/dL. The Urea [1] was 42.67 ± 2.5 mg/dL, the Creatinine [2] was 3.91 ± 0.15 mg/dL and the Total protein [2] was 4.61 ± 0.18 g/dL. The Urea [2] was 41.5 ± 2.35 mg/dL.
